From patent US12161754B2, “Abuse deterrent morphine sulfate dosage forms” (Purdue Pharma L.P., priority 2017, dated 2024)
Structures can show the parent of a compound that is named as a salt.

Experiment: Simulated smoking tests (Example 14)
Settings: API alkalinized with excess NaOH, heated with a Sterno burner for 15 minutes

For `CN1CC[C@]23c4c5ccc(O)c4O[C@H]2[C@@H](O)C=C[C@H]3[C@H]1C5` [Morphine sulfate pentahydrate, morphine hemi(sulfate pentahydrate)], the API volatilized was “about 21%”.
